From patent US4210749A, “Substituted 1,2,4,5-tetrahydro-3H,3 benzazepines” (priority 1979, dated 1980)
Where a name gives a salt, the structure may show the parent alone. Read-outs that look alike come from different tables or passages of the source.

Experiments:
Format in all cases: in vivo
[1] = I.P. symptomatology (highest tolerated dose, median lethal dose), Table IV; conditions: for LD50 / MTD: in vivo, ip; for MTD: read-out: HTD (highest tolerated dose)
[2] = Narcotic antagonism I.P., Table IV
sciatic block = experiment: Local anesthetic sciatic block, Table IV; conditions: 1%

Structure (SMILES) | LD50 [1] | MTD [1] | Narcotic Antagonism [2] | Local Anesthetic Sciatic Block (sciatic block) | LD50 (median lethal dose) [1] | HTD (highest tolerated dose) [1] | Narcotic Antagonism ([2]; hydrochloride) | HTD (highest tolerated dose) ([1]; hydrochloride)
Oc1ccc2c(c1)CCN(C[C@@H]1C[C@H]1c1ccccc1)CC2 (relative stereo) [Example 30, 7-Hydroxy-3(trans-2-phenylcyclopropylmethyl)-1,2,4,5-tetrahydro-3H,3-benzazepine] | > 1000 mg/kg | 1000 mg/kg | Negative |  |  |  |  | 
C[C@H]1Cc2ccccc2CCN1 (single isomer, unassigned) [Example 48, (-)-2-Methyl-1,2,4,5-tetrahydro-3H,3-benzazepine] | 60 mg/kg | 30 mg/kg | Some | Positive |  |  |  | 
C[C@@H]1Cc2ccccc2CCN1 (single isomer, unassigned) [Example 49, (+)-2-Methyl-1,2,4,5-tetrahydro-3H,3-benzazepine hydrochloride] | 200 mg/kg | 30 mg/kg | Negative | Positive |  |  |  | 
C[C@H]1Cc2ccccc2CCN1C (single isomer, unassigned) [Example 50, (+)-2,3-Dimethyl-1,2,4,5-tetrahydro-3H,3-benzazepine hydrochloride] |  | 10 mg/kg | Negative | Positive | 25 mg/kg |  |  | 
C[C@@H]1Cc2ccccc2CCN1C (single isomer, unassigned) [Example 54, (-)-2,3-Dimethyl-1,2,4,5-tetrahydro-3H,3-benzazepine hydrochloride] | 60 mg/kg | 3 mg/kg | Negative | Positive |  |  |  | 
COc1ccc2c(c1)CC(C)NCC2 (single isomer, unassigned; (+)) [Example 53, (+)-8-Methoxy-2-methyl-1,2,4,5-tetrahydro-3H,3-benzazepine hydrochloride] |  |  | Negative | Positive |  | 10 mg/kg |  | 
CC(C)=CCN1CCc2ccc(O)cc2CC1C (single isomer, unassigned; (+)) [Example 56, (+)-3-(3,3-Dimethylallyl)-8-hydroxy-2-methyl-1,2,4,5-tetrahydro-3H,3-benzazepine hydrochloride] |  |  |  | Positive |  | 10 mg/kg | Negative | 
CC1Cc2cc(O)ccc2CCN1C (single isomer, unassigned; (+)) [Example 57, (+)-8-Hydroxy-2,3-dimethyl-1,2,4,5-tetrahydro-3H,3-benzazepine hydrochloride] | > 100 mg/kg | 10 mg/kg |  | Positive |  |  |  | 
COc1ccc2c(c1)CC(C)N(C)CC2 (single isomer, unassigned; (+)) [Example 62, (+)-8-Methoxy-2,3-dimethyl-1,2,4,5-tetrahydro-3H,3-benzazepine hydrochloride] |  |  | Negative | Positive |  |  |  | 10 mg/kg
COc1ccc2c(c1)CC(C)NCC2 (single isomer, unassigned; (-)) [Example 51, (-)8-Methoxy-2-methyl-1,2,4,5-tetrahydro-3H,3-benzazepine] |  | 10 mg/kg | Negative | Positive |  |  |  | 
CC(C)=CCN1CCc2ccc(O)cc2CC1C (single isomer, unassigned; (-)) [Example 55, (-)-3-(3,3-Dimethylallyl)-8-hydroxy-2-methyl-1,2,4,5-tetrahydro-3H,3-benzazepine hydrochloride] |  | 10 mg/kg |  | Positive |  |  |  | 
COc1ccc2c(c1)CC(C)N(C)CC2 (single isomer, unassigned; (-)) [Example 63, (-)-8-Methoxy-2,3-dimethyl-1,2,4,5-tetrahydro-3H,3-benzazepine hydrochloride] |  |  | Negative | Positive |  |  |  | 3 mg/kg
Oc1ccc2c(c1)CCNCC2 [Example 2, 7-Hydroxy-1,2,4,5-tetrahydro-3H,3-benzazepine] | 200 mg/kg | 10 mg/kg | Negative | Positive |  |  |  | 
COc1ccc2c(c1)CCN(CC=C(C)C)CC2 [Example 3, 3-(3,3-Dimethylallyl)-7-methoxy-1,2,4,5-tetrahydro-3H,3-benzazepine] | 50 mg/kg | 30 mg/kg | Negative | Positive |  |  |  | 
CC(C)=CCN1CCc2ccc(OC(=O)C34CC5CC(CC(C5)C3)C4)cc2CC1 [Example 6, 7-(Adamantanecarbonyloxy)-3-(3,3-dimethylallyl)-1,2,4,5-tetrahydro-3H,3-benzazepine hydrochloride] | > 300 mg/kg | 10 mg/kg | Positive |  |  |  |  | 
Oc1ccc2c(c1)CCN(CC1CC1)CC2 [Example 8, 3-Cyclopropylmethyl-7-hydroxy-1,2,4,5-tetrahydro-3H,3-benzazepine] | 30 mg/kg | 20 mg/kg | Positive | Positive |  |  |  | 
Oc1ccc2c(c1)CCN(CC1CCC1)CC2 [Example 9, 3-Cyclobutylmethyl-7-hydroxy-1,2,4,5-tetrahydro-3H,3-benzazepine] | 80 mg/kg | 20 mg/kg | Negative | Positive |  |  |  | 
COc1ccc2c(c1)CCN(CC1CCC1)CC2 [Example 13, 3-Cyclobutylmethyl-7-methoxy-1,2,4,5-tetrahydro-3H,3-benzazepine] | 80 mg/kg | 30 mg/kg | Negative |  |  |  |  | 
CCN1CCc2ccc(O)cc2CC1 [Example 21, 3-Ethyl-7-hydroxy-1,2,4,5-tetrahydro-3H,3-benzazepine] | 80 mg/kg | 30 mg/kg | Positive |  |  |  |  | 
COc1ccc2c(c1)CC(C)NCC2 (stereo not shown) [Example 32, 8-Methoxy-2-methyl-1,2,4,5-tetrahydro-3H,3-benzazepine] | ~60 mg/kg | ~10 mg/kg | Negative | Positive |  |  |  | 
COc1ccc2c(c1)CC(C)N(CC=C(C)C)CC2 (stereo not shown) [Example 33, 3-(3,3-Dimethylallyl)-8-methoxy-2-methyl-1,2,4,5-tetrahydro-3H,3-benzazepine hydrochloride] | 50 mg/kg | 1 mg/kg | Negative |  |  |  |  | 
COc1ccc2c(c1)CC(C)N(CC1CC1)CC2 (stereo not shown) [Example 42, 3-Cyclopropylmethyl-8-methoxy-2-methyl-1,2,4,5-tetrahydro-3H,3-benzazepine hydrochloride] | 60 mg/kg | 10 mg/kg | Negative |  |  |  |  | 
COc1ccc2c(c1)CC(C)N(CC=Cc1ccccc1)CC2 (stereo not shown) [Example 44, 8-Methoxy-2-methyl-3-(3-phenylallyl)-1,2,4,5-tetrahydro-3H,3-benzazepine hydrochloride] | 60 mg/kg | 10 mg/kg | Negative | Insoluable |  |  |  | 
COc1ccc2c(c1)CC(C)N(CCc1ccc(O)cc1)CC2 (stereo not shown) [Example 58, 3-(P-Hydroxyphenethyl-8-methoxy-2-methyl-1,2,4,5-tetrahydro-3H,3-benzazepine hydrochloride] | > 300 mg/kg | 1 mg/kg | Negative | Insoluble |  |  |  | 
